Results on 1 compound are retold here after publication PMC7463714, “Design and Synthesis of Novel Hybrid 8-Hydroxy Quinoline-Indole Derivatives as Inhibitors of Aβ Self-Aggregation and Metal Chelation-Induced Aβ Aggregation” (Molecules, 2020).

As a reminder, the EC50 is the midpoint of the concentration-response curve.

Entries after “also recorded” stand apart in the source; their conditions may differ.

The target of one data set is T1, Aβ1–42 (Homo sapiens, UniProt P05067).
T1 construct: Aβ1–42 (Adooq Bioscience, CA, USA); purchased Adooq Bioscience
In words: Self-induced Aβ1–42 aggregation, thioflavin T (ThT) fluorescence assay. The class given is biochemical. How it is done:
The novel hybrid 8-hydroxyquinoline-indole derivatives, 7a–7e, 12a, 12b, and the (8-hydroxyquinolin-2-yl)methyl-4-(1H-indole-2-carbonyl)piperazine-1-carboxylate analogs 18a–18h were evaluated for inhibitory activity against self-induced Aβ1–42 aggregation at five different concentrations (0.3, 1.0, 3, 9 and 27 µM) with 25 µM Aβ1–42, utilizing a thioflavin T (ThT) fluorescence assay with clioquinol, 1 as a positive control (Figure 3). In the absence of inhibitor, the self-induced Aβ1–42 aggregation ThT fluorescence was recorded as 115 arbitrary units (a.u.). The self-induced Aβ1–42 aggregation results for all the above synthetic analogs from the ThT fluorescence assay are shown in Table 1. […] The thioflavin T (ThT)-fluorescence assay was used to measure the inhibition of Aβ aggregation. Aβ1–42 (Adooq Bioscience, CA, USA) was pretreated with 1 mL of hexafluoroisopropanol (HFIP) to afford a stock solution, which was aliquoted into small samples. The solvent was evaporated at room temperature, and samples were stored at −80 °C. For Aβ1–42 aggregation inhibition experiments, phosphate buffer (pH 7.4) was added to the Aβ stock solution to afford a 50 µM concentration before use. A mixture of the Aβ1–42 peptide (10 µL, 25 µM final concentration) with or without the test compound (10 µL; 0.3, 1.0, 3, 9, and 27 µM) was incubated at 37 °C for 48 h. Blanks using phosphate buffer (pH 7.4) instead of Aβ, with or without test compound, were also assessed. Then 50 mM glycine-NaOH buffer (pH 8.0) containing ThT (5 µM) was added to 20 µL of the sample to afford a final volume of 200 µL. The fluorescence intensities were recorded (excitation, 450 nm; emission, 485 nm). The fluorescence intensities were background corrected to the no enzyme control and 100% of intensity reflected no inhibition of aggregation. To obtain the normalized amyloid aggregation inhibition relative to the control group, the amyloid aggregation/cell values were further divided by the total amyloid fluorescence of the control group. Using GraphPad Prism, the amyloid aggregation values (relative to control group) were entered along the corresponding concentrations for the triplicates and then a log transformation was obtained. Using the dose–response simulation module in GraphPad Prism, nonlinear regression fit (curve) was then generated for each small molecule with various concentrations used. Curves were then compared to determine if they were statistically different, by performing the best-fit values of selected unshared parameters between data sets and extra sum-of-squares F test, allowing for selection of the simpler model unless the P value was less than 0.05. The logEC50 output parameter was then selected to obtain the EC50 for each of the dose–response curves for the small molecules.

In another data set the test system is SY5Y-APPSw cells. The data set is described as follows: Protein aggregation in SY5Y-APPSw cells (ThT staining). Format: cell-based. To be noted: 1 µM, 48 h, 37 °C; compared to clioquinol (1). How it is done:
In another study compounds 7a–7d, 18c–18f, and 18h were also evaluated for their ability to reduce protein aggregation in SY5Y-APPSw cells. SY5Y-APPSw cells were exposed to the above protein aggregation inhibitors and parent compound 1 at 1 µM for 48 h at 37 °C. Cells were assessed for amyloid deposits by staining with 0.1% w/v ThT, counterstaining nuclei with DAPI, and mean ThT fluorescence signal per nucleus calculated over multiple fields. All the analogs reduced fluorescence intensity (indicative of protein aggregation) by 22–67% (P < 0.001 by 2-tailed t-test). […] Thioflavin-T fluorescence assays for in vitro amyloid aggregation and cell culture models of amyloid aggregation overlap but are not identical. This is due to the fact that thioflavin in cell-culture stains not just amyloid aggregates but also other amyloid-like fibrillar structures. Another important difference is that in vitro aggregation is assessed after 24 h, whereas aggregation in cell culture is assessed after 48 h.
(§1) Human Embryonic Kidney cells that overexpress tau protein (HEK-tau) cells or SY5Y neuroblastoma cells that express a familial-AD mutant of amyloid precursor protein (SY5Y-APPSw cells) were each seeded in 96-well plates at 8000 cells per well. After 24 h, cells were supplemented with test compound at 1 µM after diluting with medium. Vehicle only control was also included for each experiment. The cells were cultured for an additional 48 h at 37 °C. Both the cell lines were able to reach approximately 80% confluency in 48 h. Cells were assessed for amyloid deposits by staining with 0.1% w/v ThT, counterstaining nuclei with DAPI, and calculating mean ThT fluorescence signal per nucleus over multiple fields.

The test system of another data set is HEK-tau cells. In words: Protein aggregation in HEK-tau cells (ThT staining). Format: cell-based, Human. The following applies: 1 µM, 48 h, 37 °C; compared to clioquinol (1). How it is done: In our study, we have shown that restoring metal homeostasis by treatment with hybrid 8-hydroxyquinoline-indole analogs reduces tau- and amyloid-mediated protein aggregation, and their associated neurotoxicity. Analogs 7a–7d, 18c–18f, and 18h were evaluated for their ability to reduce protein aggregation in HEK-tau cells. HEK-tau cells were exposed to the above Aβ1–42 aggregation inhibitors and parent drug clioquinol (1) at 1 µM for 48 h at 37 °C. Cells were assessed for amyloid deposits by staining with 0.1% w/v thioflavin T, counterstaining nuclei with DAPI, and mean ThT fluorescence signal per nucleus was calculated over multiple fields. All the analogs reduced fluorescence intensity (indicative of protein aggregation) by 26–62% (P < 0.001 by 2-tailed t-test).
as §1

Data set [1] in a line: Metal-chelation study by UV-vis spectroscopy and Job's method. Format: physicochemical. The following applies: compound 50 µM, HEPES buffer pH 7.4, 30 min, shift from 252 nm. How it is done:
Furthermore, the stoichiometry of formation of metal complexes 18f-Cu^2+ and 18f-Zn^2+ was also determined by using Job’s method (Figure 6). The […] shown in Figure 6A,B at 0.6 and 0.5 imply a stoichiometry of 1.5:1 for 18f-Cu^2+ and 1:1 for 18f-Zn^2+.
The chelating studies were performed with a UV–vis spectrophotometer. The absorption spectra of test compound (50 μM, final concentration) alone or in the presence of CuSO4, FeSO4, or ZnCl2 (50 μM, final concentration) in buffer (20 mM HEPES, 150 mM NaCl, pH 7.4) were incubated for 30 min and then recorded at room temperature, respectively. For the stoichiometry of the test compound–Cu^2+ complex or the test compound–Zn^2+ complex, a fixed amount of test compound (50 μM) was mixed with increasing amounts of copper ion or Zn ion (0–100 μM), and the UV–vis difference spectra were analyzed to determine the ratio of ligand/metal ion in the complex.

T1 sequence (P05067 672-713 limits assumed): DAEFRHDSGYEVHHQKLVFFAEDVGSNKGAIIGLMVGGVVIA

Take `COc1ccc2[nH]c(C(=O)N3CCN(C(=O)OCc4ccc5c(Cl)cc(Cl)c(O)c5n4)CC3)cc2c1` [Compound 18f, (5,7-Dichloro-8-hydroxyquinolin-2-yl)methyl-4-(5-methoxy-1H-indole-2-carbonyl)piperazine-1-carboxylate]: the EC50 at Aβ1–42 (25 µM Aβ1–42, compound 0.3-27 µM, 37 °C, 48 h, ThT fluorescence, read-out: EC50 against self-induced Aβ1–42 aggregation) was determined as 1080 nM. In addition, the “improvement in inhibitory potency over clioquinol (1), Aβ1–42 self-aggregation” value at Aβ1–42 (relative to 1) worked out at 10 fold. The “protein aggregation inhibition in SY5Y-APPSw cells, result in words” value in the data set on SY5Y-APPSw cells is “effective in reducing protein aggregation”. The “protein aggregation inhibition in HEK-tau cells, result in words” value in the data set on HEK-tau cells is “most effective; also recorded: effective in reducing protein aggregation”. In data set [1] (CuSO4 50 µM), the “maximum absorption wavelength in the presence of Cu^2+” value is listed as 274 nm. Moreover, the “maximum absorption wavelength in the presence of Fe^2+” value in data set [1] (FeSO4 50 µM) is listed as 255 nm. The “maximum absorption wavelength in the presence of Zn^2+” value in data set [1] (ZnCl2 50 µM) is recorded as 269 nm.
